In PubChem BioAssay AID179 (DTP/NCI, 2004):
“And” between values parts separate entries of the source, which are not always exact repeats. Equal entries are not always repeated. The source made the active and inactive calls.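 How the source made its calls: active means compounds giving half or more protection of infected cells from virus-caused growth loss, again on retest; inactive means the rest.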

Test system: CEM cells HIV-1 protection, formazan growth assay
Assay: NCI AIDS Antiviral Assay
Details: for IC50: measured here: growth of uninfected CEM cells
Method in brief: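 Human CEM cells, uninfected and HIV-1-infected, received five drug concentrations, and growth was read by soluble formazan assay. Compounds giving at least 50% protection were retested; reproducible 100% protection defined confirmed active.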

| SMILES | EC50 | IC50 | outcome |
| --- | --- | --- | --- |
| O=c1[nH]c2cccccc-2c1-c1nc2ccccc2[nH]1 | > 138 µM | > 138 µM | – |
| Brc1cc2nn(-c3ccccc3)nc2c2nonc12 | > 200 µM | > 200 µM | – |
| O=c1cc2oc3cc(O)c(O)cc3c(-c3ccccc3O)c-2cc1O | > 200 µM | 115 µM | – |
| COC(=O)C(=C/c1ccc(OC)cc1)/C(C(=O)O)=C(/C)c1ccccc1 | > 708 µM | – | – |
| COc1ccc(-c2[nH]c3ccccc3c2-c2ccc(OC)cc2)cc1 | > 200 µM | 12.9 µM | – |
| CCCNC(=O)SCc1ccccc1 | – | – | inactive |
| Cc1c(C(Cc2ccccc2N(C)C(=O)/C=C\C(=O)O)c2c[nH]c3ccccc23)c2ccccc2n1C (stereo not drawn) | > 363 µM | 22.4 µM | – |
| COc1cc(NC(C)=O)c2[nH]c3c(C)cc(NC(C)=O)c(C)c3c2c1 | – | – | inactive |
| COc1cc2c3c(c1)SC(c1ccccc1)C(=O)N3CCN2 (stereo not drawn) | > 200 µM | 14.1 µM | – |
| O=C(O)C[C@H](Cl)[C@H](NC(=O)OCc1ccccc1)C(=O)O | – | – | inactive |
| Cn1c(=O)c(C(c2ccccc2)c2c(O)c3ccccc3n(C)c2=O)c(O)c2ccccc21 | > 22.9 µM | > 22.9 µM | – |
| O=C1C(=O)c2ccccc2C(O)=C1Sc1ccccc1 | > 200 µM | 13.5 µM | – |
| CC1CC(C)S(=O)CS1 (stereo not drawn) | > 759 µM | > 759 µM | – |
| CCOC(=O)c1cc(Sc2ccc(N)c(C(=O)OCC)c2)ccc1N | > 200 µM | 15.5 µM | – |
| S=C(SSC(=S)N1CCOCC1)N1CCOCC1 | > 20 µM | 0.724 µM | – |
| COc1cccc([N+](=O)[O-])c1N=O | > 200 µM | 102 µM | – |
| CC(C)(C)c1cc(/C=C/C(=O)CC(=O)/C=C/c2cc(C(C)(C)C)c(O)c(C(C)(C)C)c2)cc(C(C)(C)C)c1O | > 200 µM | > 200 µM | – |
| C=C(Br)CNCC(=C)Br | > 200 µM | 129 µM | – |
| NC(=O)c1cn(C2OC(CO)C(O)C2O)c2ncnc(N)c12 (stereo not drawn) | > 0.2 µM | 0.00562 µM | – |
| CN1c2ccccc2S(=O)(=O)n2c(COc3ccc(Cl)cc3)nnc21 | > 200 µM | > 200 µM | – |
| CCCCCC1=C(c2ccc(OC)c(S(=O)(=O)N(C)C)c2)c2cc(S(=O)(=O)N(C)C)c(OC)cc2S1(=O)=O | > 32.4 µM | > 32.4 µM | – |
| CC(C)(C)N=CN1C=Cc2nc3ccccc3cc2C1 | – | – | inactive |
| COc1cc2c(cc1OC)C(C1CC1)ON(C)CC2 (stereo not drawn) | 158 µM | > 200 µM | – |

| SMILES | EC50 | IC50 | outcome |
| --- | --- | --- | --- |
| Cc1ccnc2c1C(=O)C(=O)C=C2N1CCCCC1 | – | – | inactive |
| C[n+]1c(-c2ccc(/C=N\NC(=O)c3cncc(C(=O)N/N=C/c4ccc(-c5cn6ccccc6[n+]5C)cc4)c3)cc2)cn2ccccc21 | > 7.41 µM | > 7.41 µM | – |
| O=C1/C(=C\c2ccc([N+](=O)[O-])cc2)CS(=O)(=O)C/C1=C/c1ccc([N+](=O)[O-])cc1 | > 0.2 µM | 0.0309 µM | – |
| COC(=O)/C(=N/NC(N)=O)C(C(=O)C(=O)Nc1ccc(C)cc1)c1nc2ccc(C(=O)c3ccccc3)cc2[nH]c1=O (stereo not drawn) | > 33.1 µM | > 33.1 µM | – |
| COC1OC(CS(=O)(=O)O)C(O)C(O)C1O (stereo not drawn) | – | – | inactive |
| O=C(O)c1cc(O)c2c(c1)C([C@@H]1c3cccc(O)c3C(=O)c3c(O)cc(C(=O)O)cc31)c1cccc(O)c1C2=O (stereo partly drawn) | > 200 µM | 31.6 µM | – |
| CCCCC(C(=O)NCCNC(=O)CCC(=O)N(C)O)C(=O)NCCNC(=O)CCC(=O)N(C)O | > 200 µM | 112 µM | – |
| Cc1ccc(/C=C2\CCS(=O)(=O)c3ccccc3C2=O)cc1 | > 200 µM | 9.77 µM | – |
| CCN(CC)CCC(=O)c1ccccc1 | > 871 µM | > 200 µM and 26.9 µM | – |
| O=C=Nc1cccc(S(=O)(=O)c2cccc(N=C=O)c2)c1 | > 200 µM | > 200 µM | – |
| CC/C=C\C/C=C\C/C=C\C/C=C\CCC(=O)OC(COC(=O)CCCCCCC/C=C\C/C=C\C/C=C\CC)COC1OC(CO)C(O)C(O)C1O (stereo not drawn) | > 38 µM | > 38 µM | – |
| CC(=O)O[C@H]1CC[C@H]2[C@@H]3[C@H](C)CC4=CC(=O)CCC4[C@H]3CC[C@]12C (stereo partly drawn) | > 200 µM | 69.2 µM | – |
| O=C(O)/C=C\CCCCC(=O)O | > 1450 µM | > 1450 µM | – |
| CN1C(=O)N/C(=C\c2ccc(S(=O)(=O)N/N=C/c3ccccc3)cc2)C1=O | > 200 µM | 5.25 µM | – |
| COc1ccc(C(=O)C(CC2C(=O)NC(=O)NC2=O)c2ccc(OC)cc2)cc1 (stereo not drawn) | > 34.7 µM | > 34.7 µM | – |
| C=C1CC[N+]2(CC(C)C)CCCC12 (stereo not drawn) | > 501 µM | > 501 µM | – |
| COC1[C@]2(O)C(=O)N3/C=C\C(C)(C)c4[nH]c5ccccc5c4/C=C\3C(=O)N2C23C(C)C(C)(C)N2c2ccccc2[C@]13O (stereo partly drawn) | – | – | inactive |
| N#C/C(N)=C(\C#N)N=CNc1ccccc1N | > 200 µM | > 200 µM | – |
| Cc1ccc(Nc2nc(N)[nH]c(=O)c2N=O)cc1 | > 200 µM | 14.8 µM | – |
| O=C(O)CCC12CC[C@]3(O)OC(=O)[C@H](C[C@@H]1C(=O)O)C23 (stereo partly drawn) | – | – | inactive |
| COCN1C(=O)C2CC(/C=C/C(N)=O)=CN2C(=O)c2ccccc21 (stereo not drawn) | – | – | inactive |
| CC(=O)NCCc1c(-c2[nH]c3ccccc3c2CCNC(C)=O)[nH]c2ccccc12 | 51.3 µM | 107 µM | – |
| COc1ccc(N2C(=O)C3c4[nH]c5ccc(C)cc5c4C4CCC(C)CC4C3C2=O)cc1 (stereo not drawn) | > 100 µM | > 100 µM | – |

| SMILES | EC50 | IC50 | outcome |
| --- | --- | --- | --- |
| CCCC(C(=O)OC)C(=O)C(C)c1nc2n(c1O)C(=N)N=N2 (stereo not drawn) | > 200 µM | > 200 µM | – |
| O=C1c2ccccc2C(=O)N1CCCSCC(CO)SCCCN1C(=O)c2ccccc2C1=O (stereo not drawn) | > 200 µM | > 200 µM | – |
| COc1ccc(NC(=O)c2c(NC(=O)CN3CCOCC3)c(C#N)c3n2CCC3)cc1 | > 100 µM | > 100 µM | – |
| COC(=O)CC1COC(C)(C)O1 (stereo not drawn) | – | – | inactive |
| COC(=O)c1c2c(cc3c1CC1(Cc4cc5c(cc4C1)CCCC5)C3)CCCC2 | > 200 µM | > 200 µM | – |
| CN1CCCC1CCNc1nc(C(Cl)(Cl)Cl)nc2cc(Cl)ccc12 (stereo not drawn) | > 24.5 µM | 12.9 µM | – |
| COC(=O)C1=CC2OC1(C)CCC2=O (stereo not drawn) | – | – | inactive |
| NC(CCSS(=O)(=O)O)=NCC(c1ccccc1)c1ccccc1 | > 123 µM | 20 µM | – |
| O=C(/C(=C\c1ccc(Cl)cc1)c1ccccc1)c1ccccc1 | > 11.7 µM | > 11.7 µM | – |
| COc1ccc(C2OC(N)=C(C#N)C3=C2C(C)CCC3)cc1OC (stereo not drawn) | 501 µM | 631 µM | – |
| Cc1c(C)n(-c2ccccc2)c2nc(S(C)(=O)=O)nc(S(C)(=O)=O)c12 | > 200 µM | 0.288 µM | – |
| O=C1C(=Cc2cccc(F)c2)C(=O)c2ccccc21 | > 20.9 µM | > 20.9 µM | – |
| CCCCn1c(=O)cc(C(=O)O)c2ccccc21 | > 200 µM | > 200 µM | – |
| O=C1Nc2ccc(Cl)cc2C(c2ccccc2Cl)=NC1O (stereo not drawn) | – | – | inactive |
| CCOC(=O)c1cc2c(ccc3cc(C(=O)OCC)[nH]c32)[nH]1 | > 200 µM | > 200 µM | – |
| CCOC(=O)C1=CC(C(=O)OCC)=C2C=CC=C3C=CC=C1N32 | > 57.5 µM | 12.9 µM | – |
| Cc1cc(O)c(/C=N/C(=S)NCc2ccccc2)c(=O)o1 | > 200 µM | > 200 µM | – |
| OCCNc1nnc(NCCO)c2[nH]cnc12 | – | – | inactive |
| CSc1nc2nccnc2c(=O)[nH]1 | > 1290 µM | > 1290 µM | – |
| CCCCn1c(N)n[nH]c1=S | – | – | inactive |
| COc1cccc2c1N(COC(C)=O)C(=O)C1C=CC(C)(C)OC21 (stereo not drawn) | > 100 µM | 56.2 µM | – |
| Cc1cc2occ(-c3ccc(Cl)cc3)c2c(=O)o1 | > 20 µM | > 20 µM | – |
| COc1cc2c(c(OC)c1OC)-c1ccc(SC)c(=O)cc1C(NC=O)CC2 (stereo not drawn) | > 0.002 µM | 0.0011 µM | – |

| SMILES | EC50 | IC50 | outcome |
| --- | --- | --- | --- |
| O=C1NC2c3c(I)sc(I)c3/C(=N\O)C2O1 (stereo not drawn) | > 200 µM | 16.2 µM | – |
| C[C@@H]1C(=O)c2c(O)cc3c(c2O[C@@H]1C)CCC(C)(C)O3 | > 200 µM | 47.9 µM | – |
| CCOC(=O)C1CC(C(=O)OCC)c2nc3ccccc3nc21 (stereo not drawn) | > 8.71 µM | > 8.71 µM | – |
| COc1ccc(CC2NC(=O)C3CCCN3C2=O)cc1 (stereo not drawn) | > 200 µM | > 200 µM | – |
| C[N+]12CN3CN(C1)CP(=O)(C3)C2 | > 794 µM | 115 µM | – |
| C[C@@H](c1ccccc1)N1CN(C(=O)OCc2ccccc2)C(C)(C)CC1=O | > 200 µM | 191 µM | – |
| NC(CCc1ncc(C(=O)O)s1)C(=O)O (stereo not drawn) | – | – | inactive |
| Nn1c(-c2ccccc2)nc2ccc(Br)cc2c1=O | – | – | inactive |
| N#Cc1c(N=C/C=C/c2ccccc2)c(C(=O)Nc2ccccc2)n2c1CCC2 | > 200 µM | > 200 µM | – |
| O=S1C=C(C2=COCCC2)OC1 (stereo not drawn) | > 195 µM | > 195 µM | – |
| COc1ccc2nc3c([N+](=O)[O-])ccc4c3c(c2c1)N=CN4CCN(C)C | > 100 µM | 1.02 µM | – |
| COc1cc(/C=C2\C(=O)N(c3ccc(NC(C)=O)cc3)C(c3ccccc3)S2(=O)=O)cc(OC)c1OC (stereo not drawn) | > 200 µM | 87.1 µM | – |
| Nc1cccc(N=Nc2c(S(=O)(=O)O)cc3cc(NC(=O)Nc4ccc5c(O)c(N=Nc6cccc(N)c6)c(S(=O)(=O)O)cc5c4)ccc3c2O)c1 | 13.5 µM | > 100 µM | – |
| O=C(NC1=NC2C=CC([N+](=O)[O-])=CC2S1)C(=O)Nn1c(=S)[nH]c2ccccc2c1=O (stereo not drawn) | > 81.3 µM | 74.1 µM | – |
| N#C/C(=C\c1ccc(O)c(O)c1)C(=O)NCCN1CCN(C(=O)/C(C#N)=C/c2ccc(O)c(O)c2)CC1 | > 200 µM | 26.3 µM | – |
| Cc1cccc(/C=C2\CCCCCC2=O)c1 | > 200 µM | 53.7 µM | – |
| c1ccc(P(c2ccccc2)c2ccc(P(c3ccccc3)c3ccccc3)nn2)cc1 | > 8.51 µM | > 8.51 µM | – |
| Cc1ccc(NC(=O)CC/C(CC(=O)C(C)(C)C)=N/NC(=O)C(N)=O)cc1C | > 324 µM | > 324 µM | – |
| CN(C)c1ccc(C(=O)CCCN2CCC(O)(c3ccc(Cl)cc3)CC2)cc1 | > 25.1 µM | > 25.1 µM | – |
| O=C(OCCN1CCCC1)c1cc2ccccc2n1-c1ccccc1 | > 200 µM | 46.8 µM | – |
| Clc1ccc2nc(-c3ccc(Cl)c(Cl)c3)cc(-c3ccccc3)c2c1 | > 200 µM | > 200 µM | – |
